Patent US20180193294A1, “Dehydroabietic acid (DHAA) derivatives for use as ion channel openers” (priority 2015, published 2018)
Like-named read-outs stand apart in the source and are kept apart here.

Key:
Type in all cases: cell-based
3R Shaker K channel = 3R Shaker K channel (Drosophila melanogaster, UniProt P08510, A359R/M356R); assay: physchem; settings: for pKa: Drosophila melanogaster, from pH dependence of G(V) shift; for G(V) shift: Table 1; for G(V) shift / compound-induced G(V) shift (mean±SEM): pH 7.4, Xenopus oocytes; for Effects on K channel Mean ± SEM: Table 2, K channel expressed in Xenopus oocytes; for maximum shift: dose dependence fit; for relative current amplitude: representative traces at voltage giving 10% of maximum conductance in control
Outline: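 Two-electrode voltage clamp at 20-23° C. in oocytes (also CHO-K1 stable line, manual patch clamp) expressing Shaker H4 lacking N-type inactivation; 1K extracellular solution, pH 7.4, holding −80 mV, 100-ms 5-mV steps up to +70 mV. Compound-induced G(V) shift taken at 10% of control Gmax (oocytes) or as V1/2 difference (CHO-K1).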

WT Shaker K channel = WT Shaker K channel (Drosophila melanogaster, UniProt P08510, DEL6-46); assay: physchem; settings: for pKa: Drosophila melanogaster, from pH dependence of G(V) shift
From the text: A Shaker K channel is a Kv channel from the fruit fly Drosophila melanogaster. It is homologous to the human Kv1-type ion channels.
All animal experiments were approved by the local Animal Care and Use Committee and followed international guidelines. A modified Shaker H4 channel^30, with removed N-type inactivation (ShH4IR)^31, here called the wild type (WT) channel, was expressed in oocytes. In addition, a modified 3R Shaker K channel where two introduced positive charged arginines (M356R and A359R) in addition to one native arginine (R362) makes the channel more sensitive to DHA^16, was expressed in oocytes and in a CHO—K1 stable cell line.
African clawed frogs (Xenopus laevis) were anesthetized with 1.4 g/L ethyl 3-aminobenzoate methanesulfonate salt (tricaine). After an incision through the abdomen a batch of oocytes were removed. Clusters of oocytes were separated by incubation for ˜1 h in a Ca-free O—R2 solution (in mM: 82.5 NaCl, 2 KCl, 5 HEPES, and 1 MgCl2; pH adjusted to 7.4 by NaOH) containing Liberase Blendzyme. The oocytes were then incubated at 8° C. in a modified Barth's solution (MBS; in mM: 88 NaCl, 1 KCl, 2.4 NaHCO3, 15 HEPES, 0.33 Ca(NO3)2, 0.41 CaCl2, and 0.82 MgSO4; pH adjusted to 7.6 by NaOH) supplemented with penicillin (25 U/ml), streptomycin (25 μg/ml), and sodium pyruvate (2.5 mM) 2-24 hours before injection. Fifty nl of cRNA (50 pg) were injected into each oocyte using a Nanoject injector (Drummond Scientific, Broomall, Pa.). Injected oocytes were kept at 8° C. in MBS until one day before electrophysiological recordings, when they were incubated at 16° C. All chemicals were supplied from Sigma-Aldrich (Stockholm, Sweden) if not stated otherwise.
All manual electrophysiological recordings were performed at room temperature (20-23° C.), using a GeneClamp 500B amplifier (for oocytes) or a Axopatch 200B amplifier (for manual patch clamp of CHO—K1 cells and DRG neurons) and a Digidata 1440A digitizer and pClamp 10 software (all from Molecular Devices, Inc., Sunnyvale, Calif., USA). Compounds were dissolved to 100 mM in 99.5% EtOH and stored at −20° C. Compounds were diluted in extracellular solution to the desired test concentration.
The oocyte was placed in a bath surrounded by 1K extracellular solution that contained (in mM): 88 NaCl, 1 KCl, 15 HEPES, 0.4 CaCl2, and 0.8 MgCl2, pH adjusted to 7.4 by NaOH (reaching a sodium concentration of ˜100 mM). Control solution was added to the bath with a gravity driven perfusion system. Compound solution was added to the bath manually with a syringe. Two glass microelectrodes were inserted into the oocyte using micromanipulators. […] All channels were closed when the potential was clamped to −80 mV and this voltage was set as the holding potential. Currents were evoked from the holding potential of −80 mV by 100-ms long, 5-mV steps ranging from −80 up to +50 mV (WT) and +70 mV (3R).
Conductance GK(V) was calculated as GK(V)=[…], (Eq. 1) where IK is the average current from the steady-state phase at the end of each 100-ms pulse, V is the membrane voltage, and Vrev is the reversal potential for K^+, (set to −80 mV for the oocytes, and calculated to be −89 mV for the CHO—K1 cells).
G(V)=A/(1+exp((V1/2−V)/s))^n (Eq. 2) where A is amplitude of the curve, V is the absolute membrane voltage, V1/2 is the midpoint, s is the slope and n is an exponent set to 4^17. The compound-induced G(V) shift was determined at the 10% level of the maximum conductance in control solution^17. The compound-induced G(V) shift in CHO—K1 was quantified by subtracting the control V1/2 from the compound V1/2 when n was set to 1.
Data for concentration and pH dependent G(V) shifts (ΔV) in oocytes were fit with a dose-response equation ΔV=ΔVmax/(1+c1/2/c), (Eq. 3) where Δvmax is the maximal shift, c1/2 is half maximal effective concentration/pKa value and c is the concentration.

HL-1 cells = assay: Membrane potential and firing of spontaneously beating HL-1 cells, whole-cell current clamp; settings: 10 uM
Description: All conventional chemicals were purchased from Sigma-Aldrich (Stockholm, Sweden). The DHAA derivatives were diluted in ethanol in a 100 mM stock solution. The stock solutions were stored at −20 t for further use.
The cell culture was done according to a previous study (Claycomb et al., Proceedings of the National Academy of Sciences of the United States of America 1998; 95:2979-2984). In brief, cells were grown on gelating fibronectin coated T75 flasks. They were maintained in Claycomb Medium which was supplemented with 10% fetal bovine serum, 2 mM L-glutamine, 0.1 mM noradrenaline, and 100 U/ml, 100 μg/ml penicillin-streptomycin. Enzymatic dissociation with 0.05% trypsin-EDTA was done after full confluence. Isolated cells were plated on fibronectin-gelatin coated plastic coverslips and used for recording.
Whole-cell current-clamp recordings were done on confluent cells at 35±1° C., using an Axopatch 200B amplifier (Molecular Devices, Sunnyvale, Calif.). Patch pipettes were fabricated from borosilicate capillary glass on a vertical pipette puller and had resistances of 3-5 MO. Data were stored on a computer through Digidata 1440A interface (Molecular Devices), and was analyzed with pCLAMP software (version 10.1, Molecular Devices). The bath solution contained the following (in mM): 140 NaCl, 5.4 KCl, 1 MgCl2, 1.8 CaCl2, 10 HEPES, and 10 glucose (pH adjusted to 7.4 with NaOH). The micropipettes were filled with a solution containing (in mM): 130 K-gluconate, 9 KCl, 8 NaCl, 1 MgCl2, 10 EGTA, 10 HEPES, and 3 Na2ATP (pH adjusted to 7.3 with KOH).

Sequence of 3R Shaker K channel (P08510 whole entry M356R/A359R): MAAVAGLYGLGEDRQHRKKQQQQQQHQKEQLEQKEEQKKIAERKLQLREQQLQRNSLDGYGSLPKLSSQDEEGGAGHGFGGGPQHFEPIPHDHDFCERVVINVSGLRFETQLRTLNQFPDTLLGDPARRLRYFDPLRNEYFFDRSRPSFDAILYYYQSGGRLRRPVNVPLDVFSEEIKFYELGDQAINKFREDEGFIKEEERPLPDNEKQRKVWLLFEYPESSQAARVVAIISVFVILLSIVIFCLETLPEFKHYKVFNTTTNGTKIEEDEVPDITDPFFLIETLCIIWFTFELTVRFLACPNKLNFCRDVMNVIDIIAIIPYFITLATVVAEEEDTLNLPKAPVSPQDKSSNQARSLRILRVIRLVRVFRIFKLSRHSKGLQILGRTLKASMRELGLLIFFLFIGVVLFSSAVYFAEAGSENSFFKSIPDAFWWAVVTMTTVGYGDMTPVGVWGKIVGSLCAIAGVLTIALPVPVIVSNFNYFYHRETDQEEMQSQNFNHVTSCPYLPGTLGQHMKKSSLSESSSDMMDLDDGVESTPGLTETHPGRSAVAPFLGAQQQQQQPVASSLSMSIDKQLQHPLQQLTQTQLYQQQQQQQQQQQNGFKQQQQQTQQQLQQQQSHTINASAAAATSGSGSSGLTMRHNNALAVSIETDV
Sequence of WT Shaker K channel (P08510 other isoform, or with tags, fused parts or gaps DEL6-46): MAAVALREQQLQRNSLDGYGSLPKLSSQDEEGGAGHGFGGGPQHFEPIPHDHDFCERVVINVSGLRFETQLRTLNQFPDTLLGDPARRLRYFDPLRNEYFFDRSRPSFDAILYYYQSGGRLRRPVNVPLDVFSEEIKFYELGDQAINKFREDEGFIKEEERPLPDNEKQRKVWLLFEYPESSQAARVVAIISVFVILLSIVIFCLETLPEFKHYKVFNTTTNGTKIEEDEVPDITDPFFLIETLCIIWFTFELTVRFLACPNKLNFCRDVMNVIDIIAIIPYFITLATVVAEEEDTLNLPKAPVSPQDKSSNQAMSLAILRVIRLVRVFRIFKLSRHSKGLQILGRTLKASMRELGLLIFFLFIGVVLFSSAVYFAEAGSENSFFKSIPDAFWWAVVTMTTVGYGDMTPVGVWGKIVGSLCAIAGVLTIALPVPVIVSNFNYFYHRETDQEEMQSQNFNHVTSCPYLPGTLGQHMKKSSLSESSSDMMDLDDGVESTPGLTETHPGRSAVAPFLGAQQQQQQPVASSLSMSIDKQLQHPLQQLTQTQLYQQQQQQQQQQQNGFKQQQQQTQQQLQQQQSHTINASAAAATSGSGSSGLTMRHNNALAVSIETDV

## CO/N=C1\CC2[C@](C)(C(=O)O)CCC[C@]2(C)c2cc(Br)c(C(C)C)cc21 (stereo partly drawn) [Wu32, (1R,4aS,E)-6-bromo-7-isopropyl-9-(methoxyimino)-1,4a-dimethyl-1,2,3,4,4a,9,10,10a-octahydrophenanthrene-1-carboxylic acid]
3R Shaker K channel; 100 μM, pH 7.4
  increase in G(V) shift relative to DHAA (ΔVc7, ΔVhalo, ΔVtot): −18.5 mV
  relative current amplitude: 10.8 times
3R Shaker K channel; 100 μM
  pKa: 5.8
  G(V) shift: −30.0 mV
3R Shaker K channel
  Effects on K channel Mean ± SEM: −30.0 ± 1.8 mV
3R Shaker K channel; Wu32 versus Wu36, 100 μM, pH 7.4
  factor of increase of the G(V) shift by bromination of C12 with methyloxime at C7: 2.5
3R Shaker K channel; c1/2 of dose dependence of G(V) shift (Eq. 3), pH 7.4, read-out: Kd-value
  Kd: 37 µM
3R Shaker K channel; pH 7.4
  maximum shift: −41 mV
3R Shaker K channel; methyloxime at C7 plus Br-12, 100 μM, pH 7.4
  shift more than expected from simple addition: −15.5 mV
WT Shaker K channel; 100 μM
  pKa: 6.1
HL-1 cells
  Effects on HL-1 cells Mean (membrane potential): −3.6 mV
  effect on membrane potential of HL-1 cells: intermediate effect on the HL-1 cells

## CC(C)c1ccc2c(c1)C(C(=O)O)CC1[C@](C)(C(=O)O)CCC[C@]21C (stereo partly drawn) [Wu35]
3R Shaker K channel; 100 μM
  compound-induced G(V) shift (mean±SEM): no effect on the K channel
  G(V) shift: −1.3 mV
3R Shaker K channel; C7-modified DHAA, 100 μM, pH 7.4
  effect on G(V) shift / current compared with DHAA: clearly reduced the current increase
3R Shaker K channel
  Effects on K channel Mean ± SEM: −1.2 ± 0.6 mV
3R Shaker K channel; 100 μM, pH 7.4
  relative current amplitude: 1.3 times
HL-1 cells
  Effects on HL-1 cells Mean (membrane potential): 1.5 mV
  effect on membrane potential of HL-1 cells: no effect on the HL-1 cells

## C[C@@]1(C(=O)O)CCC[C@]2(C)c3cc(Cl)c(Cl)c(Cl)c3CCC12 (stereo partly drawn) [Wu50, (1R,4aS)-6,7,8-trichloro-1,4a-dimethyl-1,2,3,4,4a,9,10,10a-octahydrophenanthrene-1-carboxylic acid]
3R Shaker K channel
  Kd: 37 µM
  Effects on K channel Mean ± SEM: −31.6 ± 2.1 mV
3R Shaker K channel; 1 μM, pH 7.4
  ΔG(V) at 1 μM: −1.3±0.3 mV
3R Shaker K channel; 100 μM
  compound-induced G(V) shift (mean±SEM): −31.6±2.1 mV
  pKa: 6.5
  G(V) shift: −31.6 mV
3R Shaker K channel; 100 μM, pH 7.4, same cells as representative traces
  ΔG(V) of representative G(V) curves (single examples): −32.6 mV
3R Shaker K channel; pH 7.4
  maximum shift: −46 mV
WT Shaker K channel; 100 μM, pH 7.4
  G(V) shift for WT relative to 100 μM DHAA: ~10 times
WT Shaker K channel; 100 μM, pH 7.4, Xenopus oocytes
  G(V) shift for WT: −21.2 mV
WT Shaker K channel; 100 μM
  pKa: 6.8
WT Shaker K channel; WT channel at pH 7.4
  current amplitude increase compared to DHAA: 56 times
WT Shaker K channel; WT, 100 μM, pH 7.4
  current amplitude increase compared to DHA (A=exp(−ΔV/4.7)): 25 times
HL-1 cells
  Effects on HL-1 cells Mean (membrane potential): −5.5 mV
